What all share (assay): NCI anticancer screen, dose series, 48 h
The test system of assay [1] is SK-MEL-2 melanoma.
The test system of assay [2] is HT29 colon.
Assay [3] has as its system U251 CNS.
Assay [4] relates to DU-145 prostate.
For assay [5], the system named is HOP-92 NSCLC.
The subject of assay [6] is 786-0 renal.
The subject of assay [7] is NCI-H522 lung.
The subject of assay [8] is IGROV1 ovarian.
The test system of assay [9] is MDA-MB-231 breast.

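Protocol summary: plate cells (96-well), add compound at 5 concentrations, incubate 48 h, interpolate endpoints linearly. The concentration for 50% growth inhibition is given as GI50. TGI is the concentration that stops growth completely.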

For `CNS(=O)(=O)OCC1OC(n2cnc3c(N)ncnc32)C(O)C1O` (stereo not drawn), the GI50 in assay [1] was more than 100 µM; in assay [2] it was more than 100 µM; in [3], more than 100000 nM; in assay [4] it was more than 100000 nM; in assay [5], more than 100000 nM; in [6], more than 100 µM. Besides, the GI50 in assay [7], in assay [8] and in [9] was more than 100000 nM in each case. Besides, the TGI in [1], in assay [2], in [3], in assay [4], in assay [5] and in [6] was more than 100 µM each time. Besides, the TGI in assay [7], in assay [8] and in [9] was more than 100 µM in each case.
As to `CCOc1ccc(O)cc1[P+](c1ccccc1)(c1ccccc1)c1ccccc1`, the TGI in [2] was found to be 17.6 µM; in assay [3], 15 µM; in assay [6], 20.2 µM; in assay [7], 6.39 µM.
With `C#CCN(C(=O)C(F)(F)F)c1ccc(C(=O)c2ccc(N(CC#C)C(=O)C(F)(F)F)cc2)cc1`, the TGI in assay [1] was 87.9 µM; in assay [2], 45.4 µM; in assay [3] it was more than 100 µM; in assay [5], 81 µM; in assay [6] it was more than 100 µM; in [7], 49.4 µM. Also, the TGI in assay [8] is more than 100 µM.
In the case of `CCCCCCCC(=O)OCC(=O)[C@]1(O)Cc2c(O)c3c(c(O)c2[C@@H](OC2CC(N)C(O)C(C)O2)C1)C(=O)c1c(OC)cccc1C3=O` (stereo partly drawn), the GI50 is 26.6 nM in [4], 0.0622 µM in assay [6] and 578 nM in assay [9]. Moreover, the values for the TGI in assay [4], in [6] and in assay [9] were 0.284 µM, 1.25 µM and 2.17 µM, respectively.
With `O=C(CC(=O)c1cccc(Cl)c1)c1cccc(Cl)c1`, the GI50 in assay [1] was 4.75 µM; in [3], 1000 nM; in assay [4], 2770 nM; in assay [5], 1950 nM; in assay [6], 3.86 µM; in assay [7] it was 2720 nM. Further, the GI50 is 2630 nM in assay [8] and 2670 nM in assay [9]. The TGI in [1], in assay [3], in assay [4], in [5], in assay [6] and in assay [7] was more than 100 µM in each case. Besides, the TGI in [8] and in assay [9] was more than 100 µM each time.
With `CC[N+](C)(CC)CC(C)(C)C(=O)/C=C/c1ccc(/C=C/C(=O)C(C)(C)C[N+](C)(CC)CC)cc1`, the TGI in assay [2], in [3], in assay [5], in assay [6], in assay [7] and in assay [8] was more than 100 µM throughout.
As for `CCCCCCCCCCCCCC(=O)CSCCNC(=O)CCNC(=O)[C@@H](O)C(C)(C)COP(=O)(O)OP(=O)(O)OCC1OC(n2cnc3c(N)ncnc32)C(O)C1OP(=O)(O)O` (stereo partly drawn), the TGI in [1] amounted to 33.5 µM; in [2], 45.3 µM; in assay [3], 39.2 µM; in [5], 24.5 µM; in assay [6], 30.1 µM; in [7] it was 25.5 µM. The compound further had a TGI in assay [8] of 28.6 µM.
Regarding `C=C(C)C(=O)O[C@@H]1C/C(C)=C\[C@H](OC(C)=O)C[C@](C)(O)/C=C2/OC(=O)C(COC(C)=O)=C21`, the TGI in assay [1] is 14.1 µM; in assay [2], 0.687 µM; in [4] it was 7.13 µM; in [5], 37.5 µM; in assay [6] it was 6.03 µM; in assay [7], 0.539 µM. For the same compound, the TGI worked out at 3 µM in assay [8] and 2.63 µM in assay [9].
As to `O=C(C/C(CCC(=O)N(Cc1ccccc1)Cc1ccccc1)=N/Nc1ccc([N+](=O)[O-])cc1[N+](=O)[O-])c1ccccc1`, the TGI in [1], in assay [2], in assay [3], in [5], in assay [6] and in assay [7] was more than 100 µM in each case. In addition, the TGI in [8] was more than 100 µM.
In the case of `Cc1nc2sccn2c1C(=O)NC(=O)Nc1ccc(Cl)cc1`, the TGI in assay [1] is more than 100 µM; in assay [2] it was more than 100 µM; in [3], more than 100 µM; in assay [5], 74.3 µM; in [6], more than 100 µM; in assay [7] it was more than 100 µM. This compound registered a TGI in [8] of more than 100 µM.
Regarding `CC12CCC3c4cc(Br)c(O)c(Br)c4CCC3C1CCC2O` (stereo not drawn), the TGI in assay [1] is 59.4 µM; in assay [2], 29.1 µM; in assay [3], 29.6 µM; in [4], more than 100 µM; in assay [6], 42 µM; in assay [8], 34 µM. Moreover, the TGI in assay [9] turned out to be 27.4 µM.

These data come from PubChem BioAssay (NCI).
